The record followed here is article PMC9551036, “A selective and orally bioavailable VHL-recruiting PROTAC achieves SMARCA2 degradation in vivo” (Nature Communications, 2022).

Test [1] deals with VCB: PROTAC: SMARCA2^BD ternary complex. Kind of test: TR-FRET ternary complex affinity and cooperativity, SMARCA2. The note with it: ratio TR-FRET EC50 / TR-FRET EC50 +VCB measured in the same run, SMARCA2BD. In kind it is binding, human.
For test [2], the target named is VCB: PROTAC: SMARCA4^BD ternary complex (Homo sapiens, UniProt P40337+P51532). Kind of test: SPR ternary complex measurement, VCB immobilised, 10 µM SMARCA4^BD present. In kind it is binding. Also noted: P51532, residues 1448–1569 with additional N-terminal SM residues; His6 (TEV site) (N, cleaved yes); GST (TEV site) (N, cleaved yes); made in house; host or cells: SMARCA4^BD: Escherichia coli BL21(DE3). The note with it: for Kd: SPR; for alpha: cooperativity, SMARCA4, ratio of KD values measured in the same run. How it is done:
(§1) SPR data were acquired on Biacore 8K or T200 instruments (Cytiva). Target proteins were immobilised at 25 °C on CM5 chips by amine coupling (EDC/NHS, Cytiva) in HBS-P+ running buffer (pH 7.4), containing 2 mM TCEP. […] The reference surface was subsequently deactivated using 1 M ethanolamine. […] Biotinylated VCB was prepared as previously described[27]: in brief, the complex was mixed 1:1 with EZ-Link NHS–PEG4–biotin (Thermo Scientific) and incubated at room temperature for 1 h. Unreacted NHS-biotin was removed using a PD-10 desalting column (Cytiva) into 20 mM HEPES, pH 7.5, 150 mM sodium chloride and 1 mM DTT. The reference surface was generated by deactivating the EDC/NHS-treated surface with 1 M ethanolamine. All interaction experiments were done at 6 °C in running buffer (20 mM TRIS, pH 8.3, 150 mM potassium chloride, 2 mM magnesium chloride, 2 mM TCEP, 0.005% TWEEN 20, 1% dimethyl sulfoxide). For ternary complex measurements, a sensor chip surface with VCB immobilised was used (preparation as described above). Experiments were run in dual-inject mode with 10 µM SMARCA present during the injection and dissociation phase. Sensorgrams from reference surfaces and blank injections were subtracted from the raw data prior to data analysis using Biacore Insight software. Affinity and binding kinetic parameters were determined by global fitting using the 1:1 interaction model with a term for mass-transport included.

Another test addresses T1, SMARCA2^BD (Homo sapiens, UniProt P51531).
T1 construct: P51531-2, residues 1373-1493 with additional N-terminal SM residues; GST (TEV site) (N, cleaved yes); made in house; host or cells: Escherichia coli BL21(DE3)
Nature of the test: SPR binding to immobilised SMARCA2 bromodomain. The note with it: SPR, read-out: SMARCA2 KD. How it is done:
SMARCA4^BD was provided by the Structural Genomics Consortium (SGC), Toronto[32] and SMARCA2^BD and PRM1^BD5 were synthesised by GeneArt then subcloned into pDEST15 vectors (Invitrogen). The VCB complex was expressed and purified as described previously, with the modification that 0.3 mM IPTG was used for induction of expression. […] Both were stored in 20 mM 4-(2-hydroxyethyl)−1-piperazineethanesulfonic acid (HEPES), 150 mM sodium chloride and 1 mM tris(2-carboxyethyl)phosphine (TCEP) pH 7.5. SMARCA2^BD, SMARCA4^BD and PBRM1^BD5 were expressed in Escherichia coli BL21(DE3) as N-terminal GST fusion proteins with a TEV protease cleavage site. Expression and purification of these proteins has been described previously[32],[33]. Starter cultures were grown overnight at 37 °C in 10 mL of Luria-Bertani (LB) medium with ampicillin (100 μg/mL). The starter cultures were diluted (1:100) in Terrific Broth (TB) medium with ampicillin (100 μg/mL) and grown in a shaking incubator at 37 °C to an optical density (OD600) ~1 before the temperature was lowered for induction (to 23 °C for SMARCA2^BD or 18 °C for SMARCA4^BD and PRRM1^BD5). […] Cells were harvested by centrifugation and stored at −80 °C prior to purification. […] The Lysis buffers were as follows: for SMARCA2^BD: 50 mM HEPES, 500 mM sodium chloride, 5% glycerol, 5 mM dithiothreitol (DTT); for SMARCA4^BD: 25 mM HEPES, 0.3 M sodium chloride, 5% glycerol, 10 mM DTT, pH 7.5; for PBRM1^BD5: 25 mM HEPES, 300 mM sodium chloride, 5% glycerol, 10 mM DTT, pH 7.8; in each case supplemented with complete protease inhibitors (Roche). Affinity purification was performed using Glutathione Sepharose 4B (GE Healthcare) in batch mode or on-column. […] For SMARCA2^BD, prior to TEV protease cleavage the eluted GST-tagged BD was first dialysed into desalting buffer (20 mM HEPES, 250 mM sodium chloride, pH 7.0 + 0.5% glycerol). Where TEV cleavage was performed in solution, a second affinity (GST-trap) column purification step was carried out to remove the GST-tag and uncleaved GST-tagged protein. Proteins were further purified by SEC (HiLoad Superdex-75, 16/600) (GE Healthcare) and stored in Storage buffer (for SMARCA2^BD: 20 mM HEPES, 150 mM sodium chloride, pH 7.5; for SMARCA4^BD: 10 mM HEPES, 0.5 M NaCl, 5% glycerol, pH 7.5; for PBRM1^BD5: 20 mM HEPES, 300 mM NaCl, 5 mM DTT, pH 7.8). For AlphaScreen assays, eluted GST-tagged BDs were purified directly by SEC in the respective storage buffers without TEV cleavage. All chromatography purification steps were performed either at room temperature or 4 °C using an ÄKTA FPLC purification system (GE Healthcare) or a plastic Econo-Pac column (Bio-Rad).
as §1, with “software.” for “software. Affinity and binding kinetic parameters were determined by global fitting using the 1:1 interaction model with a term for mass-transport included.”
(In general: In SPR one partner is held on a chip, and binding of the other changes the refractive index at the surface.)

The mark [3] stands for this setting: ternary complex with SMARCA4BD, mean ± SD.

Broadly, the Kd is the equilibrium constant for the complex coming apart.

Where “and” joins values, the source holds several entries; their conditions need not be identical. Equal entries are not always repeated. Where two headings read alike, the source gives them in different places.

VCB: PROTAC: SMARCA4^BD ternary complex, sequence (P40337 54-213): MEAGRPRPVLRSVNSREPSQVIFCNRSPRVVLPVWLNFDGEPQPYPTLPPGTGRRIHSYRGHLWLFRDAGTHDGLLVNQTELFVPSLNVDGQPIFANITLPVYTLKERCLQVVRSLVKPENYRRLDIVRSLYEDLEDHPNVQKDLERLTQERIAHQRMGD
VCB: PROTAC: SMARCA4^BD ternary complex, sequence (Q15369 17-112 partner limits assumed): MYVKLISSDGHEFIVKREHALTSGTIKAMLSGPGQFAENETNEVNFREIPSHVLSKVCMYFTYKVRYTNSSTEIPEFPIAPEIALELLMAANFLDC
VCB: PROTAC: SMARCA4^BD ternary complex, sequence (Q15370 1-104 partner limits assumed): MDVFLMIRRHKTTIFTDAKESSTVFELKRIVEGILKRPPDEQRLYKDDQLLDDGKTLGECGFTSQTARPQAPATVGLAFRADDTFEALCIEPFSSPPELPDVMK
VCB: PROTAC: SMARCA4^BD ternary complex, sequence (P51532 1448-1569): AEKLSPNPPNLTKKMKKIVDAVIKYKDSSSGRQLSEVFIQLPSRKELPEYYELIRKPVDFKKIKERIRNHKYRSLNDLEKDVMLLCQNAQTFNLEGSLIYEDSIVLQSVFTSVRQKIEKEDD
T1 sequence (P51531 1373-1493 isoform P51531-2): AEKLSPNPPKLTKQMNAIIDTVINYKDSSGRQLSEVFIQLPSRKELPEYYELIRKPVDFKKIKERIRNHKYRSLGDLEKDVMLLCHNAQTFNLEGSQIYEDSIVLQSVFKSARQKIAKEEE

Turning to `Cc1ncsc1-c1ccc(CNC(=O)[C@@H]2C[C@@H](O)CN2C(=O)[C@@H](NC(=O)C2(F)CC2)C(C)(C)C)c(OCCCCN2CCC(c3ccc4c(c3)n(C3CCCC3)c3nc(=O)c5c(Br)cccc5n43)CC2)c1` [compound 23], in test [1], the “cooperativity α (SMARCA2BD)” value is 0.7 ± 0.3. Moreover, the Kd was 84 ± 1 nM in test [2] (setting [3]); 84.3 nM and 82.7 nM and 85 nM in test [2] (ternary, individual replicates); 94 ± 11 nM at SMARCA2^BD (SMARCA2BD, mean ± SD); 102 nM and 81.3 nM and 98.3 nM at SMARCA2^BD (individual replicates). The alpha in test [2] is listed as 0.2.
Take `Cc1ncsc1-c1ccc([C@H](CCCCN2CCC(c3ccc4c(c3)n(C3CCCC3)c3nc(=O)c5c(Br)cccc5n43)CC2)NC(=O)[C@@H]2C[C@@H](O)CN2C(=O)[C@@H](NC(=O)C2(F)CC2)C(C)(C)C)cc1` [compound 25]: in test [1], the “cooperativity α (SMARCA2BD)” value came to 2.2 ± 0.6. The Kd in test [2] (setting [3]) was 14 ± 2 nM; in test [2] (ternary, individual replicates), 12.8 nM and 13.3 nM and 15.6 nM; on SMARCA2^BD (SMARCA2BD, mean ± SD) it was 93 ± 3 nM; on SMARCA2^BD (individual replicates), 95.4 nM and 90.4 nM and 94 nM. Further, the alpha in test [2] is 0.4.
With `Cc1ncsc1-c1ccc([C@H](COCCN2CCC(c3ccc4c(c3)n(C3CCCC3)c3nc(=O)c5c(Br)cccc5n43)CC2)NC(=O)[C@@H]2C[C@@H](O)CN2C(=O)[C@@H](NC(=O)C2(N(C)C)CC2)C(C)(C)C)cc1` [compound 26], the “cooperativity α (SMARCA2BD)” value in test [1] is on record as 5.8 ± 1.9. Besides, the Kd in test [2] (setting [3]) is 116 ± 16 nM; in test [2] (ternary, individual replicates), 105 nM and 109 nM and 135 nM; at SMARCA2^BD (SMARCA2BD, mean ± SD) it was 118 ± 5 nM; on SMARCA2^BD (individual replicates), 119 nM and 123 nM and 113 nM. The alpha in test [2] was determined as 0.7.
`Cc1ncsc1-c1ccc([C@H](COCCCN2CCC(c3ccc4c(c3)n(C3CCCC3)c3nc(=O)c5c(Br)cccc5n43)CC2)NC(=O)[C@@H]2C[C@@H](O)CN2C(=O)[C@@H](NC(=O)C2(F)CC2)C(C)(C)C)cc1` [compound 27]: the “cooperativity α (SMARCA2BD)” value in test [1] is reported as 3.3 ± 0.8. The Kd in test [2] (setting [3]) is 18 ± 1 nM; in test [2] (ternary, individual replicates), 16.7 nM and 17.5 nM and 19.5 nM; at SMARCA2^BD (SMARCA2BD, mean ± SD) it was 217 ± 30 nM; on SMARCA2^BD (individual replicates) it was 244 nM and 185 nM and 221 nM. In test [2], the alpha is on record as 0.7.
Regarding `Cc1ncsc1-c1ccc([C@H](COC(C)(C)CN2CCC(c3ccc4c(c3)n(C3CCCC3)c3nc(=O)c5c(Br)cccc5n43)CC2)NC(=O)[C@@H]2C[C@@H](O)CN2C(=O)[C@@H](NC(=O)C2(F)CC2)C(C)(C)C)cc1` [compound 28], in test [1], the “cooperativity α (SMARCA2BD)” value was found to be 3.8 ± 0.4. In addition, the Kd in test [2] (setting [3]) is 73 ± 13 nM; in test [2] (ternary, individual replicates) it was 63.4 nM and 67.4 nM and 86.9 nM; on SMARCA2^BD (SMARCA2BD, mean ± SD), 196 ± 3 nM; at SMARCA2^BD (individual replicates) it was 199 nM and 193 nM and 195 nM. Besides, in test [2], the alpha turned out to be 0.8.
In the case of `Cc1ncsc1-c1ccc([C@H](CC[C@@H](C)CCN2CCC(c3ccc4c(c3)n(C3CCCC3)c3nc(=O)c5c(Br)cccc5n43)CC2)NC(=O)[C@@H]2C[C@@H](O)CN2C(=O)[C@@H](NC(=O)C2(F)CC2)C(C)(C)C)cc1` [compound 29], the “cooperativity α (SMARCA2BD)” value in test [1] amounted to 6.4 ± 1.1. Moreover, the Kd is 11 ± 1 nM in test [2] (setting [3]); 11.5 nM (2×) and 9.84 nM in test [2] (ternary, individual replicates); 255 ± 42 nM at SMARCA2^BD (SMARCA2BD, mean ± SD); 304 nM and 227 nM and 235 nM at SMARCA2^BD (individual replicates). The alpha in test [2] was 1.1.
Take `Cc1ncsc1-c1ccc([C@H](CCC(C)(C)CCN2CCC(c3ccc4c(c3)n(C3CCCC3)c3nc(=O)c5c(Br)cccc5n43)CC2)NC(=O)[C@@H]2C[C@@H](O)CN2C(=O)[C@@H](NC(=O)C2(F)CC2)C(C)(C)C)cc1` [compound 30]: the “cooperativity α (SMARCA2BD)” value in test [1] was determined as 5.9 ± 1.9. The Kd in test [2] (setting [3]) was 45 ± 6 nM; in test [2] (ternary, individual replicates), 41.2 nM and 41.8 nM and 51.4 nM; at SMARCA2^BD (SMARCA2BD, mean ± SD), 325 ± 31 nM; on SMARCA2^BD (individual replicates), 290 nM and 351 nM and 333 nM. For the same compound, the alpha in test [2] turned out to be 0.6.
